Test results as given in the supplement of paper PMC10307832.

Columns and labels:
Assay in all cases: relative viability (nuclei count vs DMSO), 5 days (fraction); higher = more cells survive
[1] = compound: O[C@@H](COc1cccc2ncccc12)CN1CCN([C@@H]2c3ccccc3[C@@H]3[C@H](c4ccccc42)C3(F)F)CC1 [Zosuquidar] + Cc1nc(Nc2ncc(C(=O)Nc3c(C)cccc3Cl)s2)cc(N2CCN(CCO)CC2)n1 [Dasatinib] (partner 0.075 µM)
How it was run: (§1)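 Lung cancer cell lines were seeded in 1536-well plates and dosed by pin tool the next day, with either a single drug or a fixed anchor-drug dose combined with five library-drug doses (not always all listed) spaced in √10 steps. Five days later, one step fixed the cells and stained their nuclei (final 0.05% Triton X-100, 1% formaldehyde, 1 ug/ml Hoechst), and nuclei were counted on 4× images. Relative viability is the nuclei count in treated wells divided by the count in vehicle wells, and each value is the median of duplicate plates.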

[2] = compound: C1=CC(=CC=C1NC(=S)NNC2=C(C=C(C=C2[N+](=O)[O-])C(F)(F)F)[N+](=O)[O-])F [Kobe2602] + C[C@]1(O)C[C@@H](c2nc(-c3ccc4ccc(-c5ccccc5)nc4c3)c3c(N)nccn32)C1 [Linsitinib] (partner 1 µM)
How it was run: as §1

[3] = compound: C1=CC(=CC=C1NC(=S)NNC2=C(C=C(C=C2[N+](=O)[O-])C(F)(F)F)[N+](=O)[O-])F [Kobe2602] + CC(C)C[C@H](NC(=O)[C@H](Cc1ccccc1)NC(=O)c1cnccn1)B(O)O [Bortezomib] (partner 0.002 µM)
How it was run: as §1

[4] = compound: C1=CC(=CC=C1NC(=S)NNC2=C(C=C(C=C2[N+](=O)[O-])C(F)(F)F)[N+](=O)[O-])F [Kobe2602] + N=C(N)NC(=N)NCCc1ccccc1 [Phenformin] (partner 250 µM)
How it was run: as §1

Cell Line	relative viability ([1]; first compound 0.01 µM)	relative viability ([1]; first compound 0.03162 µM)	relative viability ([1]; first compound 0.1 µM)	relative viability ([1]; first compound 0.3162 µM)	relative viability ([1]; first compound 1 µM)	relative viability ([2]; first compound 0.2 µM)	relative viability ([2]; first compound 0.6325 µM)	relative viability ([2]; first compound 2 µM)	relative viability ([2]; first compound 6.325 µM)	relative viability ([2]; first compound 20 µM)	relative viability ([3]; first compound 0.2 µM)	relative viability ([3]; first compound 0.6325 µM)	relative viability ([3]; first compound 2 µM)	relative viability ([3]; first compound 6.325 µM)	relative viability ([3]; first compound 20 µM)	relative viability ([4]; first compound 0.2 µM)	relative viability ([4]; first compound 0.6325 µM)	relative viability ([4]; first compound 2 µM)	relative viability ([4]; first compound 6.325 µM)	relative viability ([4]; first compound 20 µM)
PC-14	0.271	0.223	0.341	0.303	0.284	0.946	0.986	0.929	0.94	0.929	0.814	0.848	0.818	0.837	0.859	0.59	0.804	0.558	0.699	0.592
NCI-H2347	0.321	0.384	0.253	0.309	0.351	0.924	0.884	0.947	0.997	1.03	1.16	1.01	0.879	0.827	1.44	0.529	0.48	0.375	0.469	0.407
NCI-H650	0.442	0.344	0.373	0.517	0.455	0.758	1.03	0.912	0.897	0.954	0.882	1.07	0.676	0.912	0.956	0.454	0.538	0.471	0.457	0.452
NCI-H596	0.584		0.715	0.623	0.618	1.15	1.19	1.09	1.06	0.986	1.08	1	1.08	0.987	0.965	0.717	0.816	0.672	0.614	0.737
